Reference: ChEMBL document CHEMBL1201862, “PubChem BioAssay data set” (2004)
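Briefly, cells in 96-well plates were exposed to five compound concentrations for 48 h, and endpoints were estimated by linear interpolation. GI50 = concentration required for 50% inhibition of growth.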 Activity calls are given as the source filed them. Cut-off read from the data, not from the text of the source: active = GI50 up to about 1.1 µM and inactive = higher.

Tests used:
Experiment in all cases: inhibition of tumour cell growth, NCI panel, 48 h
NCI-H226 = test system: NCI-H226
OVCAR-3 = test system: OVCAR-3
KM12 = test system: KM12
CCRF-CEM = test system: CCRF-CEM
SW-620 = test system: SW-620
UACC-62 = test system: UACC-62
CAKI-1 = test system: CAKI-1
786-0 = test system: 786-0
RXF 393 = test system: RXF 393
SR = test system: SR
SF-295 = test system: SF-295
SK-MEL-2 = test system: SK-MEL-2
HCT-116 = test system: HCT-116
TK-10 = test system: TK-10
KM-20L2 = test system: KM-20L2

Measured: GI50

O=C(/C=C1\Nc2ccccc2C(=O)N1c1ccccc1Cl)c1ccccc1
inactive: NCI-H226 > 100 µM | OVCAR-3 88.9 µM | KM12 84.1 µM | CCRF-CEM > 100 µM | SW-620 > 100 µM | UACC-62 > 100 µM | CAKI-1 > 100 µM | 786-0 > 100 µM | RXF 393 > 100 µM | SR > 100 µM | SF-295 > 100 µM | SK-MEL-2 > 100 µM | HCT-116 36.5 µM | TK-10 > 100 µM | KM-20L2 > 100 µM

CCNc1nc2c(=O)n(C)c(=O)n(C)c2s1
inactive: NCI-H226 > 100 µM | OVCAR-3 > 100 µM | KM12 > 100 µM | CCRF-CEM > 100 µM | SW-620 > 100 µM | UACC-62 > 100 µM | 786-0 > 100 µM | RXF 393 > 100 µM | SF-295 > 100 µM | SK-MEL-2 > 100 µM | HCT-116 > 100 µM | TK-10 > 100 µM | KM-20L2 > 100 µM

O=C(/C=C/c1ccc(OCCCOc2ccc(/C=C/C(=O)c3ccc(Cl)cc3)cc2)cc1)c1ccc(Cl)cc1
inactive: NCI-H226 > 100 µM | OVCAR-3 > 100 µM | KM12 > 100 µM | CCRF-CEM > 100 µM | SW-620 > 100 µM | UACC-62 > 100 µM | CAKI-1 > 100 µM | 786-0 > 100 µM | RXF 393 > 100 µM | SR > 100 µM | SF-295 > 100 µM | SK-MEL-2 > 100 µM | HCT-116 > 100 µM | TK-10 > 100 µM | KM-20L2 > 100 µM

CC1CCC2(OC1)OC1CC3C4CCC5CC(O)CCC5(C)C4CC(=O)OC3(C)C1C2C (configuration not stated)
inactive: OVCAR-3 > 100 µM | KM12 > 100 µM | CCRF-CEM > 100 µM | SW-620 > 100 µM | UACC-62 > 100 µM | CAKI-1 > 100 µM | 786-0 > 100 µM | RXF 393 > 100 µM | SR > 100 µM | SF-295 > 100 µM | SK-MEL-2 > 100 µM | HCT-116 > 100 µM | TK-10 > 100 µM | KM-20L2 > 100 µM

CC1=CC(=O)N(c2c(C)cccc2Cl)C(C)N1 (configuration not stated)
inactive: NCI-H226 > 100 µM | OVCAR-3 > 100 µM | KM12 > 100 µM | CCRF-CEM > 100 µM | SW-620 > 100 µM | UACC-62 > 100 µM | CAKI-1 > 100 µM | 786-0 > 100 µM | RXF 393 > 100 µM | SF-295 > 100 µM | SK-MEL-2 > 100 µM | HCT-116 > 100 µM | TK-10 > 100 µM | KM-20L2 > 100 µM

C=C1C=CC2(Br)OC3CC(C)(Cl)C(Br)CC13C2(C)C (configuration not stated)
inactive: NCI-H226 19.1 µM | OVCAR-3 20 µM | KM12 24.4 µM | CCRF-CEM 25.1 µM | SW-620 24.2 µM | UACC-62 17.8 µM | CAKI-1 29.5 µM | 786-0 33.8 µM | SF-295 20.4 µM | SK-MEL-2 17.6 µM | HCT-116 15 µM | TK-10 37.2 µM | KM-20L2 21.9 µM

COc1cc(C(O)C(=O)c2nc3ccc([N+](=O)[O-])cc3nc2O)ccc1O (configuration not stated)
inactive: NCI-H226 > 100 µM | OVCAR-3 > 100 µM | KM12 > 100 µM | CCRF-CEM 40.7 µM | SW-620 > 100 µM | UACC-62 73.1 µM | CAKI-1 > 100 µM | 786-0 > 100 µM | SR > 100 µM | SF-295 > 100 µM | SK-MEL-2 > 100 µM | HCT-116 > 100 µM | TK-10 > 100 µM | KM-20L2 69.7 µM

Cc1ccc(C)c(NC(=O)/C(=N\NC(N)=S)C(C#N)c2ccccc2)c1 (configuration not stated)
inactive: NCI-H226 > 100 µM | OVCAR-3 > 100 µM | KM12 > 100 µM | CCRF-CEM > 100 µM | SW-620 > 100 µM | UACC-62 > 100 µM | CAKI-1 > 100 µM | 786-0 > 100 µM | SR > 100 µM | SF-295 > 100 µM | SK-MEL-2 > 100 µM | HCT-116 > 100 µM | TK-10 > 100 µM | KM-20L2 > 100 µM

O=C(c1ccccc1)C(c1ccccc1)C1(O)C(=O)Nc2ccc([N+](=O)[O-])cc21 (configuration not stated)
inactive: NCI-H226 > 100 µM | CCRF-CEM 41.9 µM | SW-620 > 100 µM | UACC-62 58.1 µM | CAKI-1 > 100 µM | 786-0 > 100 µM | RXF 393 > 100 µM | SK-MEL-2 > 100 µM | HCT-116 > 100 µM | TK-10 > 100 µM | KM-20L2 > 100 µM

COc1cccc(NC(=O)C(C)(C)C)c1C=O
inactive: NCI-H226 33.4 µM | OVCAR-3 37 µM | KM12 42.3 µM | CCRF-CEM 32.1 µM | SW-620 34.7 µM | UACC-62 74.3 µM | CAKI-1 56.6 µM | 786-0 > 100 µM | SR 26.5 µM | SF-295 67.6 µM | SK-MEL-2 73.6 µM | HCT-116 35.6 µM | TK-10 35 µM | KM-20L2 43.8 µM
